In assay [1] the test system is SNL rats (mechanical allodynia). Put plainly: Antiallodynic effect (von Frey) in spinal nerve ligation (SNL) rats. As to conditions: for ED50: Rattus norvegicus, antiallodynic effect, intravenous administration. In kind it is in vivo, rat. How it is done:
(§1) 3-1. Evaluation of In Vivo Efficacy
(§2) The antiallodynic effects (mechanical allodynia) were evaluated using rats according to a previously reported protocol. In order to evaluate the withdrawal threshold, rats (naive, SNL and CIPN) were placed on a plastic mesh floor of individual plastic cages. The rats were allowed to acclimate to the environment for 30 minutes and examined after intrathecal or intravenous administration to the caudal vein. The control group received the same volume of vehicle (intrathecal administration of saline or DMSO, intravenous administration of DMSO:PEG:PBS=1:6:3 v/v %) as the experimental groups. Evaluation of the mechanical withdrawal threshold was measured in responses to the application of calibrated von Frey filaments (Stoelting, Wood Dale, Ill., USA) to the hind paw of the rats through the holes on the mesh floor underneath the cage using the ‘up and down method’. A series of eight von Frey filaments (0.4, 0.7, 1.2, 2.0, 3.6, 5.5, 8.5, and 15 g) was applied perpendicular to the sole of the hind paw for 5 seconds while the head was bent. Active withdrawal or flinching of the paw was considered as a positive reaction. The absence of response in the rats, when a pressure was applied to 15 g von Frey filament, was used as a cut-off value. Only rats with definite allodynia (i.e., mechanical withdrawal threshold: less than 4 g after SNL or less than 5 g after CIPN) were tested. The rats after termination of the experiments were euthanized through an overdose of sevoflurane. The withdrawal threshold data for the von Frey filament test was calculated as % MPE (maximum possible effect) based on the following Calculation Equation: % MPE=[(Post-drug threshold−Post-injured baseline threshold)/(Cutoff threshold−post-injured baseline threshold)×100]. Dose-response data were analyzed using Scheffe's post hoc test and one-way analysis of variance (ANOVA).

In assay [2] the test system is CIPN rats (mechanical allodynia). Put plainly: Antiallodynic effect (von Frey) in chemotherapy-induced peripheral neuropathy (CIPN) rats. In kind it is in vivo. The settings on record: Rattus norvegicus, intravenous administration. As for the experimental part: as §1, §2
Assay [3] concerns neuropathic pain (NeP) animal models. Put plainly: Efficacy in neuropathic pain (NeP) animal models, model not specified. It is filed as in vivo, rat. As to conditions: Rattus norvegicus, read-out: ED50 of clinical drugs for NeP. As for the experimental part: as §1, §2

SMILES strings stand for the structures.

Experimental findings from patent US11319289B2, “5-hydroxy pyridine-based compound for use as P2X1 and P2X3 receptor antagonist and pharmaceutical composition comprising same” (GWANGJU INSTITUTE OF SCIENCE AND TECHNOLOGY, priority 2017, dated 2022) are described below.

Regarding `CCCc1nc(Cc2cccc(Oc3ccccc3)c2)c(C)c(C(=O)OC2CCNCC2)c1O` [Compound 47, Piperidin-4-yl 3-hydroxy-5-methyl-6-(3-phenoxybenzyl)-2-propylisonicotinate], the figures for the ED50 in assay [1] and in assay [2] were 3.35 mg/kg and 3.77 mg/kg, respectively. With `CCCc1nc(Cc2cccc(Oc3ccccc3)c2)c(C)c(C(=O)OCCN2CCCC2)c1O` [Compound 46e, 2-(pyrrolidin-1-yl)ethyl 3-hydroxy-5-methyl-6-(3-phenoxybenzyl)-2-propylisonicotinate], the figures for the ED50 in assay [1] and in assay [2] were 3.02 mg/kg and 3.55 mg/kg, respectively. Take `COc1cccc(C2(O)CCCCC2CN(C)C)c1` (stereo not shown) [tramadol, reference compound]: the ED50 in assay [3] is 4.67 mg/kg. Turning to `CCCc1nc(Cc2cccc(Oc3ccccc3)c2)c(C)c(C(=O)OCCCCN2C(=O)c3ccccc3C2=O)c1O` [Compound 46d, 4-phthalimidobutyl 3-hydroxy-5-methyl-6-(3-phenoxybenzyl)-2-propylisonicotinate], the results for the ED50 in assay [1] and in assay [2] were 3.12 mg/kg and 3.94 mg/kg, respectively. Take `CCCc1nc(Cc2cccc(Oc3ccccc3)c2)c(C)c(C(=O)OCC)c1O` [Compound 48, Ethyl 3-hydroxy-5-methyl-6-(3-phenoxybenzyl)-2-propylisonicotinate]: the ED50 in assay [1] is 3.52 mg/kg; in assay [2] it was 3.87 mg/kg. As for `CCCCCCCCOC(=O)c1c(C)c(Cc2cccc(Oc3ccccc3)c2)nc(CCC)c1O` [Compound 46b, Octyl 3-hydroxy-5-methyl-6-(3-phenoxybenzyl)-2-propylisonicotinate], the ED50 in assay [1] was 2.47 mg/kg; in assay [2], 2.93 mg/kg. The like results for `CCCc1nc(Cc2cccc(Oc3ccccc3)c2)c(C)c(C(=O)OC(C)C)c1O` [Compound 46f, Isopropyl 3-hydroxy-5-methyl-6-(3-phenoxybenzyl)-2-propylisonicotinate] were, in that order, 2.78 mg/kg and 3.08 mg/kg. For `CCCc1nc(Cc2cccc(Oc3ccccc3)c2)c(C)c(C(=O)OC2CCOC2)c1O` (stereo not shown) [Compound 46i, Tetrahydrofuran-3-yl 3-hydroxy-5-methyl-6-(3-phenoxybenzyl)-2-propylisonicotinate], the ED50 was 2.87 mg/kg in assay [1] and 3.56 mg/kg in assay [2].

On to `CCCc1nc(Cc2cccc(Oc3ccccc3)c2)c(C)c(C(=O)OCCc2ccccc2)c1O` [Compound 46a, Phenethyl 3-hydroxy-5-methyl-6-(3-phenoxybenzyl)-2-propylisonicotinate], for which the figures for the ED50 in assay [1] and in assay [2] were 2.31 mg/kg and 3.02 mg/kg, respectively. In the same order, the values of `CCCc1nc(Cc2cccc(Oc3ccccc3)c2)c(C)c(C(=O)OCCN2C(=O)c3ccccc3C2=O)c1O` [Compound 46c, 2-phthalimidoethyl 3-hydroxy-5-methyl-6-(3-phenoxybenzyl)-2-propylisonicotinate] are 2.97 mg/kg and 3.28 mg/kg. `CCCc1nc(Cc2cccc(Oc3ccccc3)c2)c(C)c(C(=O)OC(CC)CC)c1O` [Compound 46g, Pentan-3-yl 3-hydroxy-5-methyl-6-(3-phenoxybenzyl)-2-propylisonicotinate]: the ED50 in assay [1] worked out at 3.42 mg/kg; in assay [2], 3.66 mg/kg.

`CCCc1nc(Cc2cccc(Oc3ccccc3)c2)c(C)c(C(=O)OC2CCCC2)c1O` [Compound 46h, Cyclopentyl 3-hydroxy-5-methyl-6-(3-phenoxybenzyl)-2-propylisonicotinate]: the ED50 worked out at 3.64 mg/kg in assay [1] and 3.91 mg/kg in assay [2]. In the case of `CC(C)C[C@H](CN)CC(=O)O` [pregabalin, reference compound], the “antiallodynic efficacy, MPE %” value in assay [1] (1 μg, intrathecal administration) is listed as 65±9%. Further, the ED50 in assay [3] is 4.21 mg/kg.
